Patent publication EP4154876B1, “CBX7 INHIBITOR FOR USE IN THE TREATMENT AND/OR PREVENTION OF A BLOOD VESSEL DISORDER” (Universität Potsdam, priority 2021, dated 2023)
Where a SMILES comes first, the peptide text is derived from it. [ ]: non-standard residue; d: D form. The star is where a group is joined. Benzoyl(4-tBu) = CC(C)(C)c1ccc(C(=O)*)cc1; Lys(Et2) = CCN(CC)CCCC[C@H](N)C(=O)O

Assays:
[1] = molecular target: T1, CBX7ChD (Homo sapiens, UniProt O95931); settings: estimated; determined by NMR titration; CBX7ChD alone; cited from earlier work
T1 sequence (O95931 11-69 limits assumed): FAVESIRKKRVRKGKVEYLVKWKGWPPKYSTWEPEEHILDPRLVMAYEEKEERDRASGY

[2] = tested on: ccm2 mutants; experiment: Pharmacological treatment of zebrafish ccm2 mutants (CCM disease model); type: in vivo; settings: for posterior caudal vein plexus: ccm2 mutants after treatment with inhibitor, Fig. 4A right column; for heart phenotype (strongly enlarged and ballooning heart): ccm2 mutants treated with inhibitor, Fig. 4A left column
Protocol: In ccm2 mutants the heart is strongly enlarged and ballooning. In ccm2 mutants treated with MS37452 or MS351, this phenotype is suppressed and is reminiscent of wild type. Similarly, the posterior caudal vein plexus in ccm2 mutants is fenestrated after treatment with the inhibitors. Quantifications of these phenotype classes are in B). To elucidate whether a pharmacological suppression of Cbx7a has the same effect on the zebrafish CCM model, specific small compound inhibitors of CBX7 were tested (MS37452 and MS351). Both inhibitors block the binding of CBX7 to histone modifications on genomic DNA and suppress the epigenetic function of this protein within the Polycomb repressive complex (PRC1) (Fig. 3). Both inhibitors suppress the expression of the CCM phenotype in zebrafish disease models (Fig. 4). The effects of both inhibitors are reminiscent of the genetic knockout of cbx7a in ccm2 mutants. Heart phenotypes is shown in Fig. 4A left column while the region of the posterior caudal vein plexus in Fig. 4A right column. In ccm2 mutants the heart is strongly enlarged and ballooning. In ccm2 mutants treated with MS37452 or MS351, this phenotype is suppressed and is reminiscent of wild type. Similarly, the posterior caudal vein plexus in ccm2 mutants is fenestrated after treatment with the inhibitors. Quantifications of these phenotype classes are shown Fig. 4B. The y-axis represents the ratio of the amounts of embryos with suppressed ballooning heart and abnormal caudal vein plexus phenotype to the amounts of embryos with ballooning heart and abnormal caudal vein plexus phenotype.

[3] = tested on: ChDs from other CBX proteins including CBX1/3/5 (HP1β/γ/α) and CBX2/4/6/8; settings: cited from earlier work
[4] = molecular target: T2, chromodomains of CBX7 (Homo sapiens, UniProt O95931); settings: CBX7 chromodomain; cited from earlier work
T2 sequence (O95931 11-69 limits assumed): T1 sequence (O95931 11-69 limits assumed)

| Structure (SMILES) | Kd [1] [µM] | posterior caudal vein plexus [2] | heart phenotype (strongly enlarged and ballooning heart) [2] | binding to ChDs from other CBX proteins [3] | Kd [4] [µM] |
| --- | --- | --- | --- | --- | --- |
| Cc1ccccc1Cn1c(=N)n(CC(O)c2ccc(Cl)c(Cl)c2)c2ccccc21.Cl (stereo not shown) [MS351] | ~500 | fenestrated | suppressed | does not bind |  |
| COc1cccc(C(=O)N2CCN(C(=O)COc3cccc(C)c3)CC2)c1OC [MS37452] |  | fenestrated | suppressed |  |  |
| CCN(CC)CCCC[C@H](NC(=O)[C@H](CC(C)C)NC(=O)[C@H](C)NC(=O)[C@H](Cc1ccccc1)NC(=O)c1ccc(C(C)(C)C)cc1)C(=O)N[C@@H](CO)C(=O)OC [UNC3866] ({Benzoyl(4-tBu)}-FAL[Lys(Et2)]S-OMe) |  |  |  |  | ~0.1 |
